We go through 14 compounds from publication PMC9925432, “Thioquinoline derivatives conjugated to thiosemicarbazide as potent tyrosinase inhibitors with anti-melanogenesis properties” (Scientific Reports, 2023).

Where two headings read alike, the source gives them in different places. Some results are limits rather than exact numbers.

The nature of data set [1]: MTT assay for cell viability, HEK 293. Conditions: human, HEK 293 cells, 48 h, MTT, mean ± S.E.M.; for viability at 48 h, 16 µM: HEK 293, 16 µM; for viability at 48 h, 32 µM: HEK 293, 32 µM; for viability at 48 h, 64 µM: HEK 293, 64 µM. Type of data set: cell-based. As to the method: (§1) The cytotoxic activity of all derivatives against the HEK 293 cell line and 10g against A375 (at a density of 5 × 10^3 cells/ml) using 3-(4,5-dimethylthiazol-2-yl)-2,5- diphenyltetrazolium bromide (MTT) assay were performed. Cells were grown at 37 °C in the presence of CO2 5% in DMEM (Gibco BRL, Grand Island, NY, USA), 10% fetal bovine serum (FBS, Gibco BRL), and penicillin/streptomycin (100 IU/mL and 100 µg/mL, respectively). Next cells were seeded in a 96-well plate and incubated at 37 ^∘C with derivatives at different concentrations for 48 h. Following the treatment, cells were incubated with MTT (0.5 mg/ml) at 37 ^∘C for 3 h. The MTT-containing medium was then removed, and 100 μl of DMSO was added to each well, mixed thoroughly with a 10 min shake to dissolve formazan crystals. The absorbance of each well was measured at 540 nm[33].

The target in data set [2] is T1, Mushroom tyrosinase (EC 1.14.18.1) (Agaricus bisporus, UniProt C7FF04).
T1 construct: purchased Sigma Chemical Co
T1 sequence (C7FF04 1-392 limits assumed): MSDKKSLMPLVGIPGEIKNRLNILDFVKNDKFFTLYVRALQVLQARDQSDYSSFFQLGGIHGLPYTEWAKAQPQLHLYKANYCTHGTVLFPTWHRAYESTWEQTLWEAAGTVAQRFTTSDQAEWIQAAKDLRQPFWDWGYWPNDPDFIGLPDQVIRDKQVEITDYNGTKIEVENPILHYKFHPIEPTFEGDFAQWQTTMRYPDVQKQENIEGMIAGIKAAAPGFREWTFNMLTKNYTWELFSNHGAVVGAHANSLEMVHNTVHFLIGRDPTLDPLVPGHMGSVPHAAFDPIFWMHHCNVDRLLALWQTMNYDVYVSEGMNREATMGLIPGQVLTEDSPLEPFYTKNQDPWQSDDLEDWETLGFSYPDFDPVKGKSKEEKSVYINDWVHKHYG
In words: Tyrosinase inhibitory assay (colorimetric, diphenolase activity, L-Dopa). Type of data set: biochemical. The conditions noted are these: for IC50: L-Dopa as substrate, means ± RSD of 3 independent experiments. Here is the method:
Mushroom tyrosinase (EC 1.14.18.1) (Sigma Chemical Co.) was assayed using L-Dopa as the substrate as reported in our previous studies with some modifications[30]–[32]. The enzyme diphenolase activity was monitored spectrophotometrically by observing dopachrome formation at 490 nm. All the test samples were first dissolved in DMSO at 10 mM and diluted to the required concentrations. Initially, in a 96-well microplate, 10 µl of test samples were added to 160 µl of 50 mM phosphate buffer (pH = 6.8) and then 10 µl tyrosinase (500 U mL^−1) was added. After the mixture was pre-incubated at 28 °C for 20 min, 20 µl of L-Dopa solution (7 mM) was added to the mixture. After 10 min incubation absorbance of samples was measured. DMSO without test compounds was used as the control, and kojic acid was used as a positive control. Each assay was conducted as three separate replicates. The inhibitory activity of the tested compounds was expressed as the concentration that inhibited 50% of the enzyme activity (IC50). […]

Data set [3] has as its system HEK 293 cell line. In words: MTT assay for cell viability, HEK 293. Type of data set: cell-based. Conditions: for Cell viability (%): HEK 293, 32 µM, 48 h, MTT, mean ± S.E.M., 32 µM. Here is the method: as §1
In general terms: Tetrazolium assays rely on reduction of a dye to a coloured formazan, in cell work by metabolically active cells.

Data set [4] deals with mushroom tyrosinase. The conditions noted are these: cited from earlier work.

By melting point is commonly meant the temperature, or range, at which the solid turns liquid. A word on the viability: it is a per cent measure of how many cells are alive, often set against a control. As usually defined, the IC50 is the concentration that gives 50% inhibition. For `NC(=S)N/N=C/c1cc2ccccc2nc1SCC(=O)Nc1ccccc1` [Compound 10a, (E)-2-((3-((2-carbamothioylhydrazineylidene)methyl)quinolin-2-yl)thio)-N-phenylacetamide], the melting point was 180 to 182 °C. In data set [1], this compound showed a viability at 48 h, 16 µM of 90.19 ± 0.89%; a viability at 48 h, 32 µM of 72.2 ± 2.13%; a viability at 48 h, 64 µM of 65.8 ± 1.99%. Besides, half-maximal inhibition in data set [2] (IC50) required 155 µM.
As for `Cc1ccc(NC(=O)CSc2nc3ccccc3cc2/C=N/NC(N)=S)cc1` [Compound 10b, (E)-2-((3-((2-carbamothioylhydrazono)methyl)quinolin-2-yl)thio)-N-(p-tolyl)acetamide], the melting point lay within 180 to 185 °C. Besides, in data set [1], the viability at 48 h, 16 µM amounted to 96.2 ± 2.58% and the viability at 48 h, 32 µM was 81.5 ± 2.91%. For the same compound, the IC50 in data set [2] is at least 200 µM.
In turn, `CCc1ccc(NC(=O)CSc2nc3ccccc3cc2/C=N/NC(N)=S)cc1` [Compound 10c, (E)-2-((3-((2-carbamothioylhydrazono)methyl)quinolin-2-yl)thio)-N-(4-ethylphenyl)acetamide] had a melting point of 178 to 180 °C. Also, in data set [1], the viability at 48 h, 16 µM was 82.55 ± 0.5%; the viability at 48 h, 32 µM was found to be 69.3 ± 1.81%; the viability at 48 h, 64 µM turned out to be 58.3 ± 1.03%. The compound also returned an IC50 in data set [2] of 85.3 µM.
The like results for `Cc1cccc(NC(=O)CSc2nc3ccccc3cc2/C=N/NC(N)=S)c1C` [Compound 10d, (E)-2-((3-((2-carbamothioylhydrazono)methyl)quinolin-2-yl)thio)-N-(2,3-dimethylphenyl)acetamide] were, in that order, 185 to 187 °C, 87.52 ± 0.65%, 79.12 ± 0.62%, 71.4 ± 2.97% and 101 µM.
The like results for `COc1ccc(NC(=O)CSc2nc3ccccc3cc2/C=N/NC(N)=S)cc1` [Compound 10e, (E)-2-((3-((2-carbamothioylhydrazineylidene)methyl)quinolin-2-yl)thio)-N-(4-methoxyphenyl)acetamide] were, in that order, 191 to 193 °C, 85.6 ± 1.08%, 71.2 ± 3.86%, 62 ± 4.15% and 47.4 µM.
Consider `NC(=S)N/N=C/c1cc2ccccc2nc1SCC(=O)Nc1ccc([N+](=O)[O-])cc1` [Compound 10f, (E)-2-((3-((2-carbamothioylhydrazineylidene)methyl)quinolin-2-yl)thio)-N-(4-nitrophenyl)acetamide], for which the melting point lay within 180 to 182 °C. Moreover, in data set [3], the “Cell viability (%)” value was determined as 88.12 ± 4.05%. In data set [1], this compound yielded a viability at 48 h, 16 µM of 97.67 ± 0.55%; a viability at 48 h, 32 µM above 85%; a viability at 48 h, 64 µM of 80 ± 2.05%. In addition, the IC50 in data set [2] amounted to 39.8 µM.
Compound `NC(=S)N/N=C/c1cc2ccccc2nc1SCC(=O)Nc1ccc(Cl)cc1Cl` [Compound 10h, (E)-2-((3-((2-carbamothioylhydrazono)methyl)quinolin-2-yl)thio)-N-(2,4-dichlorophenyl)acetamide] displayed a melting point of 188 to 190 °C. In data set [1], this compound had a viability at 48 h, 16 µM of 96.9 ± 1.59%; a viability at 48 h, 32 µM of 78.7 ± 2.19%; a viability at 48 h, 64 µM of 67.9 ± 3.21%. Besides, the IC50 in data set [2] stood at 169 µM.
Turning to `NC(=S)N/N=C/c1cc2ccccc2nc1SCC(=O)Nc1ccccc1Br` [Compound 10j, (E)-N-(2-bromophenyl)-2-((3-((2-carbamothioylhydrazono)methyl)quinolin-2-yl)thio)acetamide], the “Cell viability (%)” value in data set [3] worked out at 88.65 ± 2.31%. In data set [1], the viability at 48 h, 16 µM was determined as 91.2 ± 4.35%; the viability at 48 h, 32 µM is above 85%; the viability at 48 h, 64 µM turned out to be 79.9 ± 3.16%. This compound came in with an IC50 in data set [2] of at least 200 µM.
`NC(=S)N/N=C/c1cc2ccccc2nc1SCC(=O)NCc1ccccc1` [Compound 10k, (E)-N-benzyl-2-((3-((2-carbamothioylhydrazono)methyl)quinolin-2-yl)thio)acetamide] yielded a melting point of 183 to 185 °C. In data set [1], this compound yielded a viability at 48 h, 16 µM of 77.3 ± 2.55%; a viability at 48 h, 32 µM of 65.4 ± 3.49%; a viability at 48 h, 64 µM of 51.1 ± 1.06%. For the same compound, the IC50 in data set [2] is 62 µM. For the same compound, the “fold improvement in the potency compared to 10a” value in data set [2] (ratio of tyrosinase IC50 values) is listed as “around 2.5 fold”.
As for `Cc1ccc(CNC(=O)CSc2nc3ccccc3cc2/C=N/NC(N)=S)cc1` [Compound 10l, (E)-2-((3-((2-carbamothioylhydrazineylidene)methyl)quinolin-2-yl)thio)-N-(4-methylbenzyl)acetamide], the melting point lay in the range of 180 to 182 °C. Further, in data set [1], the viability at 48 h, 16 µM was determined as 75.1 ± 1.99%; the viability at 48 h, 32 µM amounted to 62.6 ± 1.58%; the viability at 48 h, 64 µM was 50 ± 0.88%. The compound further returned an IC50 in data set [2] of 78.5 µM.
In the case of `NC(=S)N/N=C/c1cc2ccccc2nc1SCC(=O)NCc1ccc(F)cc1` [Compound 10m, (E)-2-((3-((2-carbamothioylhydrazono)methyl)quinolin-2-yl)thio)-N-(4-fluorobenzyl)acetamide], the melting point lay within 186 to 188 °C. In addition, the “Cell viability (%)” value in data set [3] turned out to be 86.44 ± 1.17%. Besides, in data set [1], the viability at 48 h, 16 µM was found to be 95.5 ± 2.97%; the viability at 48 h, 32 µM is above 85%; the viability at 48 h, 64 µM turned out to be 71.2 ± 5.42%. Moreover, the IC50 in data set [2] was 53.3 µM.
For `COc1cccc2c1C(=O)c1c(O)c3c(c(O)c1C2=O)C[C@@](O)(C(=O)CO)C[C@@H]3O[C@H]1C[C@H](N)[C@H](O)[C@H](C)O1` [Doxorubicin, reference compound], the IC50 in data set [3] (Homo sapiens, HEK293, HEK 293, MTT, read-out: IC50 (positive control)) was determined as 1.3 µM.
Take `NC(=S)N/N=C/c1ccc(OCc2cn(CC(=O)NCc3ccccc3)nn2)cc1` [G]: the 50% inhibitory concentration (IC50) is 0.17 µM in data set [4] (L-Dopa as substrate) and 0.11 µM in data set [4] (L-tyrosine as substrate).
Turning to `OC[C@H]1O[C@@H](Oc2ccc(O)cc2)[C@H](O)[C@@H](O)[C@@H]1O` [arbutin], in data set [4] (tyrosinase), the IC50 was 180 µM.
